Reference: patent US6784178B2, “Pharmacotherapy for vascular dysfunction associated with deficient nitric oxide bioactivity” (Cornell Research Foundation, Inc., priority 2000, dated 2004)

Legend:
eNOS [1] = molecular target: T1, eNOS (Bos taurus, UniProt P29473); assay: [3H]tetrahydrobiopterin competition binding to eNOS (96-well filtration plate assay); conditions: [3H]BH4 10 pmoles, eNOS 3 pmoles, 15 minutes at 22° C., FIG. 1
T1 construct: made in house
T1 sequence (P29473 1-1205): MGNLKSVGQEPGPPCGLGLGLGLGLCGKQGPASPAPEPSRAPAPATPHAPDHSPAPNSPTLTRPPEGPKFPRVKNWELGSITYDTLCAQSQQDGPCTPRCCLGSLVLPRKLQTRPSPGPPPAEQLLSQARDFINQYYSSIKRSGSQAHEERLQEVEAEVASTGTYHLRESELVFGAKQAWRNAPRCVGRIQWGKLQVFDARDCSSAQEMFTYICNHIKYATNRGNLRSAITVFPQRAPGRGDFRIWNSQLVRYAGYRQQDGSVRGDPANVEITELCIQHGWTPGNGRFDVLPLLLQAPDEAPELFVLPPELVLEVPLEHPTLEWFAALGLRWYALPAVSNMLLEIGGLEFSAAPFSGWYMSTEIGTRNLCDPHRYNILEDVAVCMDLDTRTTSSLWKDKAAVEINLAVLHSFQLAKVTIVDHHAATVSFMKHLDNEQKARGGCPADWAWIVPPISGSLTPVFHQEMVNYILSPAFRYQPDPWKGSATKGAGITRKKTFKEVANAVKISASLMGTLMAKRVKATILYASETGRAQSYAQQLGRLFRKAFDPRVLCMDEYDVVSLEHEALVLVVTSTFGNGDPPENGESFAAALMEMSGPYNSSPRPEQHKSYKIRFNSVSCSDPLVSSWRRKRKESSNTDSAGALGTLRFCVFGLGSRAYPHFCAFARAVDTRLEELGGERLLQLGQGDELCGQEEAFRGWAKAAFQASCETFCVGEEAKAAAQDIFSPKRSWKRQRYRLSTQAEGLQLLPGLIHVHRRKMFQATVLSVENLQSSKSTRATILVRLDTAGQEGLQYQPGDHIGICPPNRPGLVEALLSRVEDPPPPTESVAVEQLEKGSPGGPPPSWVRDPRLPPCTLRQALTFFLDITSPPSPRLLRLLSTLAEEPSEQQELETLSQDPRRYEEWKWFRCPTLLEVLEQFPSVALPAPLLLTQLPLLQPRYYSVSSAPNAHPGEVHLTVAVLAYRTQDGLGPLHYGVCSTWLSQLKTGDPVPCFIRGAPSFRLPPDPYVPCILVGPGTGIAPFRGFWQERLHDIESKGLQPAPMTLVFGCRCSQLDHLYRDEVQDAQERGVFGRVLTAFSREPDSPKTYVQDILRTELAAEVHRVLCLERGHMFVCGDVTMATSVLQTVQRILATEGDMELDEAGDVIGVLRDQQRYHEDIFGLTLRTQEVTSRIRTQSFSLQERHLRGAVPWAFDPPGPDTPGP
Protocol: (§1) The eNOS used in Reference Examples 1, 2, 3 and 4 was made as described in Martasek, P., et al., Biochem. Biophys. Res. Commn 219, 359-365 (1996).
Increasing concentrations of unlabeled pterins were incubated for 15 minutes at 22° C. with [^3]tetrahydrobiopterin ([^3H]BH4), 10 pmoles, and eNOS, 3 pmoles, in binding buffer which is Tris.HCl, pH 7.5, (50 mM), and dithiothreitol (DTT) (1 mM), in a 100 microliter volume in each well in a 96-well filtration plate assay. The pterins used include 5,6,7,8-tetrahydrobiopterin (BH4), 7,8-dihydrobiopterin (BH2), 6-methyltetrahydrobiopterin (6 MePH4) and sepiapterin. Data which are shown in FIG. 1 are mean±SEM values of triplicate determinations. Similar results were obtained in four separate experiments. In FIG. 1, the squares denote BH4 for the naturally occurring (R)-stereoisomer of BH4 and represent BH4, the triangles represent BH2, the diamonds represent 6 MePH4, and the circles represent sepiapterin. In FIG. 1, the term “Inhibitor” in the horizontal legend means pterin analog and is generic for BH4, BH2, 6MePH4 and sepiapterin. Incubations were carried out at the concentrations indicated by the data points in FIG. 1. This experiment is to compare the ability of the named pterins to compete for [^3H]BH4 binding to eNOS.

eNOS [2] = molecular target: T2, eNOS (Bos taurus, UniProt P29473); assay: EPR (DEPMPO spin-trap) assessment of superoxide production by pterin-bound eNOS; assay type: biochemical; conditions: 7 pmol eNOS; BH4 10 μM in buffer; subsequent addition of sepiapterin 50 μM or BH2 1 mM; FIGS. 2(a)-(c)
T2 construct: made in house
Protocol: as §1
Assay buffer utilized contained HEPES (50 mM, pH 7.4), calcium (0.2 mM), calmodulin (10 μg/ml), NADPH (0.1 mM), L-arginine (0.1 mM), tetrahydrobiopterin (10 μM), DEPMPO (structure shown in upper right of FIG. 2(a)) (50 mM), and diethylenetriamine pentaacetic acid (DTPA) (0.1 mM). Included was 7 pmol eNOS. Incubation was for 15 min at 22° C. Subsequent addition was either of sepiapterin (50 μM) or BH2 (1 mM). The DEPMPO functions as a probe (spin-trap) that selectively captures superoxide anion. Electron paramagnetic resonance (EPR) was carried out to determine superoxide production. EPR was carried out at microwave power of 2 mW, modulation amplitude 1G, time constant 0.128 seconds, scan rate 1.6 G/s, gain 1.25×10E5, number of scans 10.

eNOS [3] = molecular target: T2, eNOS; assay: Total nitrate/nitrite (Greiss assay) production by BH4- or BH2-bound eNOS from arginine or N-hydroxyarginine; assay type: biochemical; conditions: for production of nitric oxide (total nitrate/nitrite) from substrate by BH2-bound eNOS / production of nitric oxide (total nitrate/nitrite) from substrate by BH4-bound eNOS: substrate 100 μM, eNOS 10 pmol, 1 hour at 37° C.; for production of nitric oxide (total nitrate/nitrite) from substrate by BH2-bound eNOS: BH2 10 μM; for production of nitric oxide (total nitrate/nitrite) from substrate by BH4-bound eNOS: BH4 10 μM
Protocol: as §1
All samples were 100 microliter total volume and contained assay buffer (Tris.HCl pH 7.6 (50 mM), DTT (1 mM), calcium (100 μM), and calmodulin (100 nM)). In the assay buffer, eNOS (10 pmol), either BH4 (10 μM) or BH2 (10 μM), and either L-arginine (100 μM) or N^ω-hydroxy-L-arginine (100 μM) were introduced. In some experiments, the nitric oxide synthase inhibitor N^ω-methyl-L-arginine (NMA, 1 mM) was additionally added or the required NO synthase cofactor calmodulin was omitted (No CaM). Incubations were for 1 hour at 37° C. Total nitrate/nitrite (as a measure of nitric oxide) was measured by the Greiss assay as described in “Methods of Nitric Oxide Research,” edited by Feelisch, M. and Stamler, J. S., John Wiley & Sons Ltd. (1996) at pages 491-497. Results are shown in FIGS. 3(a), 3(b), 3(c) and 3(d). […] Data represent means±SEM values of quadruplicate determinations.

eNOS [4] = molecular target: T2, eNOS; assay: Concentration dependence of nitric oxide synthesis from N-hydroxyarginine by BH2- or BH4-bound eNOS; assay type: biochemical; conditions: eNOS 10 pmol preincubated with BH2 10 μM or BH4 10 μM; 1 hour at 37° C.; FIG. 4
Protocol: as §1
eNOS (10 pmol) was preincubated for 30 minutes at 37° C. in the presence of either BH2 (10 μM) or BH4 (10 μM) in assay buffer (Tris.HCl pH 7.6 (50 mM), DTT (1 mM), calcium (100 μM) and calmodulin (100 nM)). Then N^ω-hydroxy-L-arginine (denoted “Hydroxyarginine” in FIG. 4) was added (concentrations as disclosed in FIG. 4) and incubations were 100 microliter total volume and were allowed to proceed for 1 hour at 37° C. Nitric oxide production was assessed from accumulation of its stable oxidation products (nitrite and nitrate), quantified by a modified Greiss assay (reference recited in Reference Example 3). Data are mean±SEM values of quadruplicate determinations.

[5] = Example I: ointment applied to toes of male with Type I diabetes; assay type: in vivo, human; conditions: 1% by weight ointment four times a day
Excerpt: A person with Type I diabetes presents with symptoms of pain in toes and loss of pink color (gray tissue tone) in toes. An ointment containing 1% by weight N^ω-hydroxy-L-arginine is applied to the toes four times a day.

[6] = Example II: treadmill test in male with coronary artery disease; assay type: in vivo, human; conditions: oral 10 mg/kg, within 90 minutes after dose; 3 mph, 5% incline; before treatment pain after 10 minutes
Protocol: A person with coronary artery disease develops chest pain and electrocardiographic evidence of angina after 10 minutes on a treadmill at 3 mph and 5% incline. Within 90 minutes after an oral dose of 10 mg/kg of N^ω-hydroxy-L-arginine, the subject is able to walk on the treadmill at 3 mph and 5% incline for 25 minutes without pain or evidence of […].

[7] = Example III: blood pressure and vascular resistance in hypertensive female; assay type: in vivo, human; conditions: single 10 mg/kg intravenous dose, one hour after
Protocol: A person has moderate hypertension (150/100 mm Hg) and elevated vascular resistance. One hour after receiving a single 10 mg/kg intravenous dose of N^ω-hydroxy-L-arginine, mean arterial blood pressure is diminished by 14 mm Hg and systemic vascular resistance is reduced by 10%.

[8] = Example IV: chronic oral therapy after stroke; assay type: in vivo, human; conditions: oral 5 mg/kg every 4 hours, alone or combined with L-arginine 20 mg/kg every 4 hours
Protocol: A person suffers from type 2 diabetes (adult onset diabetes or insulin resistant diabetes), coronary artery disease and hypertension (a not uncommon composite of conditions), experiences a stroke resulting in acute left-sided paralysis owing to right middle cerebral artery occlusion. Surviving the stroke, the patient is placed on chronic oral therapy with N^ω-hydroxy-L-arginine, 5 mg/kg every 4 hours, or a combination of this with L-arginine, 20 mg/kg every 4 hours.

[9] = Example V: chronic oral treatment of man with mild hypertension and coronary artery atherosclerosis; assay type: in vivo, human; conditions: oral 5 mg/kg every 4 hours, free drug or with antioxidants/vitamins, with or without L-arginine
Protocol: He is treated with 5 mg/kg N^ω-hydroxy-L-arginine every 4 hours orally as either free drug or in admixture with antioxidant agents and vitamins (e.g., ascorbate, alpha-tocopherol, vitamin B6, vitamin B12, folate (folic acid), carotenoids, coenzyme Q10, phytoestrogens (including isoflavonoids), selenium, butylated hydroxytoluene (BHT), butylated hydroxyanisole (BHA) and n-3 polyunsaturated fatty acids (PUFA)) with or without L-arginine supplementation (20 mg/kg every 4 hours). The mixture is delivered as a nutriceutical. Blood pressure normalizes to less than 130/80 mm Hg and angiographic evidence indicates atherosclerosis progression is less than 10% additional over the next five years.

## C[C@H](O)[C@H](O)C1=Nc2c(nc(N)[nH]c2=O)NC1 [BH2, 7,8-dihydrobiopterin]
eNOS [1]
  affinity of binding to eNOS (competition for [3H]BH4 binding): bind with equal affinity to eNOS
eNOS [2]
  superoxide production by eNOS bound to the pterin (EPR): activate superoxide production

## CNC(=N)NCCC[C@H](N)C(=O)O [NMA, N^ω-methyl-L-arginine]
eNOS [3]; NMA 1 mM added, L-arginine 100 μM
  block of arginine conversion to nitric oxide by BH4-bound eNOS: > 90%
eNOS [3]; NMA 1 mM added, N-hydroxy-L-arginine 100 μM
  effect on N-hydroxyarginine conversion to nitric oxide by BH2-bound eNOS: < 30%

## N=C(NO)NCCC[C@H](N)C(=O)O [N^ω-hydroxy-L-arginine]
eNOS [3]
  production of nitric oxide (total nitrate/nitrite) from substrate by BH2-bound eNOS: does cause production of nitric oxide
  production of nitric oxide (total nitrate/nitrite) from substrate by BH4-bound eNOS: causes production of nitric oxide
eNOS [4]
  production of nitrogen oxides (nitrite and nitrate) by eNOS from the substrate: supports the production of nitrogen oxides by eNOS in the presence of either BH2 or BH4
[5]
  blood perfusion: Blood perfusion is increased
[5]; within 48 hours
  pain in toes: pain diminishes
  tissue colour of toes: tissue becomes pinker
[6]
  time able to walk on treadmill without pain or evidence of angina: 25 min
[7]
  decrease of mean arterial blood pressure: 14 mm Hg
  reduction of systemic vascular resistance: 10%
[8]
  recurrence of stroke within the next two years: no recurrence of stroke
[9]
  atherosclerosis progression (angiographic) over the next five years: less than 10%
[9]; baseline 140/90 mm Hg
  blood pressure after treatment: less than 130/80

## N=C(N)NCCC[C@H](N)C(=O)O [arginine, L-arginine]
eNOS [3]
  production of nitric oxide (total nitrate/nitrite) from substrate by BH2-bound eNOS: does not cause production of nitric oxide
  production of nitric oxide (total nitrate/nitrite) from substrate by BH4-bound eNOS: causes production of nitric oxide

## C[C@H](O)C(=O)C1=Nc2c(nc(N)[nH]c2=O)NC1 [sepiapterin]
eNOS [2]
  superoxide production by eNOS bound to the pterin (EPR): will activate superoxide production
